Consider one compound from US12410178B2, “Small cationic ortho-5,15-di-heteroaryl-porphyrin derivatives and their applications in photoinactivation of microorganisms” (UNIVERSIDADE DE COIMBRA, priority 2019, dated 2025).

Test in all cases: PDI phototoxicity towards planktonic bacteria (CFU)
Format in all cases: cell-based

The test system of experiment [1] is Escherichia coli ATCC 25922. The procedure: (§1) Phototoxicity towards bacteria was evaluated in vitro. Assays were performed with the following bacteria: Escherichia coli ATCC 25922, Pseudomonas aeruginosa ATCC 27853 and Staphylococcus aureus ATCC 29213. Further assay were performed with clinical antibiotic-resistant strains from the Centro Hospitalar da Universidade de Coimbra, namely Staphylococcus aureus methicillin-resistant (MRSA) strain Sa1CHUC recovered from the skin of a burnt patient (resistant to all beta-lactamic antibiotics), and Acinetobacter baumannii 141HUC isolated from an exudate of a burn wound and highly resistant to all beta-lactamics (penicillins, cephalosporins, monobactams and carbapenems), quinolones and the aminoglycosides gentamicin and netilmicin. The planktonic bacteria cells were cultured in Mueller Hinton (MH) agar (Sigma Aldrich) at 37° C. overnight. Cell density was adjusted to the 0.5 McFarland standard in sterile water, which corresponds to approximately 1.5×10^8 CFU/mL. For PDI experiments cell suspensions of bacteria were incubated with various concentrations of the photosensitizers for 1 h, in the dark, at room temperature, using a 96 well plate. Then, the plate was illuminated with a blue light LED (420 nm, 4 mJ/s). Cells incubated with photosensitizers in the dark were covered with aluminum foil for the same time as the PDI groups (1 h). After illumination (or dark incubation) samples were shaken, diluted in PBS and mixed. Aliquots were taken from each well and streaked in MH agar in duplicate for CFU determination and incubated for 37° C./18-24 h in the dark. After 24 h, the colonies were counted and CFU determined. The experiments were performed in triplicate. Statistical analysis was performed with GraphPad Prism 6.
(§2) This example describes the evaluation of in vitro phototoxicity against Gram-positive and Gram-negative bacteria of the cationic ortho-5,15-di-heteroaryl porphyrin with Formula (IIa). The phototoxicity was measured according to the description in the Materials and Methods section. […] There is a dose-phototoxicity response of the test compound relative to the non-treated control. FIG. 8 illustrates the CFU reduction as a function of photosensitizer concentration for the light dose of 1.36 J/cm^2 at 415 nm.

Experiment [2] concerns Pseudomonas aeruginosa ATCC 27853. The conditions noted are these: 60 min incubation. How it is done: as §1, §2
Experiment [3] has as its system Staphylococcus aureus ATCC 29213. The procedure: as §1, §2
Setting [4] is: 1 μM, planktonic, 1.36 J/cm^2 at 415 nm, 60 min incubation.
Setting [5] is: nanomolar concentrations, 60 min incubation, low light doses.

SMILES strings stand for the structures.

`Cn1cc[n+](C)c1C1=C2C=CC3=[N+]2[Zn@]24[n]5c(ccc51)C=C1C=CC(=[N+]12)C(c1n(C)cc[n+]1C)=c1ccc([n]14)=C3` [Formula (IIa), 5,15-bis(1,3-dimethylimidazol-2-yl)porphyrinate zinc (II) diiodide]: the “reduction of the number of bacterial CFU” value is recorded as 7 orders of magnitude in experiment [1] (1 μM, 1.36 J/cm^2 at 415 nm) and 7 orders of magnitude in experiment [3] (1 μM, 1.36 J/cm^2 at 415 nm). In experiment [1] (setting [4]), the “log CFU at 1 μM, E. Coli” value amounted to 7. Moreover, the “CFU reduction (in words)” value in experiment [1] (setting [5]) is reported as “dramatic decrease in CFU”; in experiment [2] (nanomolar concentrations, low light doses), “dramatic decrease in CFU”; in experiment [3] (setting [5]) it was “dramatic decrease in CFU”. The “log CFU at 1 μM, P. Aerogirosa” value in experiment [2] (1 μM, planktonic, 1.36 J/cm^2 at 415 nm) is on record as 3. Further, the “log CFU at 1 μM, S. Aureus” value in experiment [3] (setting [4]) was determined as 7.
